Reference: paper PMC9525908, “α-Crystallin chaperone mimetic drugs inhibit lens γ-crystallin aggregation: Potential role for cataract prevention” (The Journal of Biological Chemistry, 2022)
Positions count from the first letter of the chain named. Like-named read-outs stand apart in the source and are kept apart here.

What was measured:
[1] = target: T1, OPJ-MγS (Mus musculus, UniProt O35486, F10S); experiment: Dynamic light scattering, OPJ-MγS; type: biochemical; details: 400 μM drug; for Suppression of aggregate formation, DLS temperature scan: OPJ-MγS, 30–90 °C; for Percent Mass Peak 1 / Percent Mass Peak 2 / Radius (nm) Peak 1 / Radius (nm) Peak 2: OPJ-MγS 45 μM, 72 °C 20 min
T1 construct: made in house; host or cells: E. coli BL21(DE3) pLysS, pET17b vector
T1 sequence (O35486 1-178 F10S): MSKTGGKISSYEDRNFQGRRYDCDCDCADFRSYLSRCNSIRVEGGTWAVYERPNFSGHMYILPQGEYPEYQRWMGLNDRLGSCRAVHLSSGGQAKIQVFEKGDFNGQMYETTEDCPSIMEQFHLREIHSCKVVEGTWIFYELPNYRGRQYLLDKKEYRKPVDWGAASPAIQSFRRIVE
Procedure: (§1) Efficacy of our selected drugs in preventing the formation of protein aggregates was measured by DLS. Measurements were performed on a Wyatt DynaPro Nanostar. For DLS temperature scan experiment, pure and filtered protein samples (1 mg/ml in 10 mM sodium phosphate buffer, pH 7.2) with and without drugs (400 μM) were analyzed by DLS over a temperature range of 30 to 90 °C. Multiple scans were run for every data point, and the results represent average of individual scans. DLS spectra were also recorded for the samples at the end point of turbidity assay.

[2] = target: T2, HγS_N14/76/143D (Homo sapiens, UniProt P22914, N144D/N15D/N77D); experiment: Thermal aggregation (72 °C, 20 min) turbidity assay, HγS triple mutant; type: biochemical; details: read-out: % Suppression; for inhibition: HγS_N14/76/143D, 75 μM protein, 72 °C 20 min
T2 sequence (P22914 1-178 N15D/N77D/N144D): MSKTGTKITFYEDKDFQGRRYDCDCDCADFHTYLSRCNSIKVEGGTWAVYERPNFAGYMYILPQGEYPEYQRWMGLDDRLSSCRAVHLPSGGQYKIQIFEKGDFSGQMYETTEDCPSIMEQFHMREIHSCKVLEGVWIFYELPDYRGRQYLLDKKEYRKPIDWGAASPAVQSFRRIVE
Description: (§2) For a review, see the study by Roskamp et al. ([38]). […] For the mechanistic studies below these two compounds together with either drug M, chosen mostly as negative control, or the entire set of six compounds were used for comparison purpose, whereby the words “drug” or “compound” are used interchangeably in the studies later.

[3] = target: T3, WT-MγS (Mus musculus, UniProt O35486); experiment: Dynamic light scattering, WT-MγS; type: biochemical; details: 400 μM drug; for Suppression of aggregate formation, DLS temperature scan: WT-MγS, 30–90 °C
T3 construct: made in house; host or cells: E. coli BL21(DE3) pLysS, pET17b vector
T3 sequence (O35486 1-178): T1 sequence (O35486 1-178 F10S) with S10F
Procedure: as §1

[4] = target: T1, OPJ-MγS; experiment: End-point heat-mediated turbidity assay, OPJ-MγS; type: biochemical; details: read-out: Percent Inhibition of heat mediated aggregation, OPJ-MGS
Procedure: Absorbance was measured at 600 nm with a SpectraMax iD5 (Molecular Devices).
Aggregation kinetics assays at 600 nm in the presence of varying concentrations (0, 100, 200, 300, 400, and 500 μM) of our selected drugs were also performed on mutants of HγD (W43R, W42Q, R14C, and R58H) and MγS (F9S) at a concentration of 1 mg/ml in 50 mM K3PO4 buffer (pH 7.2) in a total volume of 100 μl. WT-HγD and WT-MγS crystallin served as controls for their respective mutant versions. […] Absorbance was monitored every 10 min. […] All the experiments were run in duplicates or triplicates.

[5] = target: T4, HγS_N76D (Homo sapiens, UniProt P22914, N77D); experiment: Thermal aggregation (72 °C, 20 min) turbidity assay, HγS_N76D; type: biochemical; details: read-out: % Suppression; for inhibition: HγS_N76D, 75 μM protein, 72 °C 20 min
T4 sequence (P22914 1-178 N77D): T2 sequence (P22914 1-178 N15D/N77D/N144D) with D15N, D144N
Description: as §2

[6] = target: T1, OPJ-MγS; experiment: bis-ANS binding study, OPJ-MγS; details: 10 μM protein, 100 μM drug; read-out: Percent inhibition of binding of bis-ANS, OPJ-MγS
Procedure: Extrinsic fluorescence spectra were recorded using bis-ANS, a well-known surface hydrophobicity probe. The spectra were recorded between 400 and 600 nm after exciting at 390 nm. The experiment was performed on 10 μM of HγD and MγS in 50 mM K3PO4 buffer with and without our candidate drugs (100 μM). Bis-ANS stock solution was prepared in methanol whose final percentage was maintained below 7 after mixing with proteins ([81]).

[7] = 500 μM drug, end point of turbidity assay 72 °C 20 min

Row | inhibition [2] [%] | inhibition at 500 µM [4, 7] [%] | inhibition [5] [%] | Percent Mass Peak 2 ([3]; WT-MγS 45 μM, 72 °C 20 min) [%] | Radius (nm) Peak 2 ([3]; WT-MγS 45 μM, 72 °C 20 min) [nm] | SMILES | Suppression of aggregate formation, DLS temperature scan [1] | Suppression of aggregate formation, DLS temperature scan [3] | inhibition at 100 µM [6] [%] | Percent Mass Peak 1 [1] [%] | Percent Mass Peak 2 [1] [%] | Radius (nm) Peak 1 [1] [nm] | Radius (nm) Peak 2 [1] [nm] | inhibition at 125 µM [2] [%] | Percent Mass Peak 1 ([3]; WT-MγS 45 μM, 72 °C 20 min) [%] | Radius (nm) Peak 1 ([3]; WT-MγS 45 μM, 72 °C 20 min) [nm] | inhibition at 500 µM [4] [%] | inhibition at 125 µM [5] [%]
1 | 46 | 77.6 ± 0.21 | 57 | – | – | COC(=O)/C=C/C(C)=C\C=C\C(C)=C\C=C\C=C(C)\C=C\C=C(C)\C=C\C(=O)O [drug B, Bixin] | mild suppressive effects | mild suppressive effects | 11.83 ± 0.00091 | – | – | – | – | – | – | – | – | –
2 | – | – | – | – | – | Cc1cc(C(C#N)c2ccc(Cl)cc2)c(Cl)cc1NC(=O)c1cc(I)cc(I)c1O (stereo not drawn) [drug C, Closantel] | strong suppressive effects | strong suppressive effects | 20.28 ± 0.00089 | 32 | 68 | 21.9 | 358.7 | 76 | 100 | 86.6 | 82 ± 0.49 | 70
3 | – | – | – | – | – | CC(C)=CCCC1(C)C=Cc2c(O)c3c(c(CC=C(C)C)c2O1)OC12C(=CC4CC1C(C)(C)OC2(C/C=C(/C)C(=O)O)C4O)C3=O (stereo not drawn) [drug D, dihydrogambogic acid] | mild suppressive effects | mild suppressive effects | 7.76 ± 0.00097 | – | – | – | – | 32 | – | – | 85.1 ± 0.68 | 59
4 | – | – | – | – | – | CC(C)=CCC[C@]1(C)C=Cc2c(O)c3c(c(CC=C(C)C)c2O1)O[C@]12C(=C[C@@H]4C[C@H]1C(C)(C)O[C@@]2(C/C=C(/C)C(=O)O)C4=O)C3=O [drug G, Gambogic acid] | strong suppressive effects | strong suppressive effects | 31.62 ± 0.00057 | 100 | – | 79.3 | – | 89 | 100 | 77.9 | 91.6 ± 0.09 | 55
5 | 46 | 33.6 ± 2.36 | 55 | 98.6 | 6200.7 | O=C(O)CCCCCCCCCCCC[C@@H]1C=CCC1 [drug M, Chaulmoogric acid] | no suppression | no suppression | 3.48 ± 0.001 | 0 | 100 | 53.1 | 5594.1 | – | 1.4 | 622.0 | – | –
6 | – | – | – | – | – | Oc1c(Cl)cc(Cl)c(Cl)c1Cc1c(O)c(Cl)cc(Cl)c1Cl [drug X, Hexachlorophene] | mild suppressive effects | mild suppressive effects | 2.45 ± 0.00075 | – | – | – | – | 71 | – | – | 60.9 ± 0.8 | 60
